The target in test [1] is T1, Adenosine receptor A3 (Homo sapiens, UniProt P0DMS8).
T1 sequence (P0DMS8 whole entry): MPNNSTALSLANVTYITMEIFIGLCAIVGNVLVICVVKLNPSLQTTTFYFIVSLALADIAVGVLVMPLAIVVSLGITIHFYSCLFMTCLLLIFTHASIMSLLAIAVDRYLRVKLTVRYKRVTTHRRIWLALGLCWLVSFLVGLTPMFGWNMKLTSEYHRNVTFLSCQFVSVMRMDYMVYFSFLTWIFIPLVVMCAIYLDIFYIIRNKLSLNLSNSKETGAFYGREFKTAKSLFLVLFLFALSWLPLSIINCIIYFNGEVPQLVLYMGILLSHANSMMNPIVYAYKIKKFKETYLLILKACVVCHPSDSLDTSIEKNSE
Briefly: biochemical.
Description: (§1) Displacement of [3H]- MRE 308F20 binding from human Adenosine A3 receptor expressed in CHO cells

The target of test [2] is T2, Adenosine receptor A2a (Homo sapiens, UniProt P29274). Briefly: biochemical.
T2 sequence (P29274 whole entry): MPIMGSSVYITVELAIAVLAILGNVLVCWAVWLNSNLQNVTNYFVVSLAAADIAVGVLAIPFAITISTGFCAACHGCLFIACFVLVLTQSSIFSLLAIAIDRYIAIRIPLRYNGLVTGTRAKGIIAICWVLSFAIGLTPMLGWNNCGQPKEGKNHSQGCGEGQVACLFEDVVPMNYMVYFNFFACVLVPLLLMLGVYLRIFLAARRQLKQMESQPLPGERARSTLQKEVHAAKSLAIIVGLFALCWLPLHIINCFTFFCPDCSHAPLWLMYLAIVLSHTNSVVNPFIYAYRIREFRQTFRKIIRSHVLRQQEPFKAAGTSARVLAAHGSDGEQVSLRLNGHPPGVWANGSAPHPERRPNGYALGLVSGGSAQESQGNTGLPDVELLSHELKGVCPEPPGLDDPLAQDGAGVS
The target of test [3] is T3, Adenosine receptor A1 (Homo sapiens, UniProt P30542).
T3 sequence (P30542 whole entry): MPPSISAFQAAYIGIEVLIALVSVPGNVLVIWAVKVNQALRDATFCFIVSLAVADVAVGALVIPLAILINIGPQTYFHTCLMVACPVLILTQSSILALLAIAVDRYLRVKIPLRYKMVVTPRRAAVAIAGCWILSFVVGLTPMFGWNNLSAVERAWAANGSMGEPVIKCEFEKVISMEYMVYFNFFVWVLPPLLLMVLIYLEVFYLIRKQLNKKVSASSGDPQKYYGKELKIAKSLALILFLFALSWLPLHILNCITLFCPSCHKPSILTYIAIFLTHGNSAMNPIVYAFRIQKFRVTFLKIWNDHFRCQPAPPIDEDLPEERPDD
Briefly: biochemical.
Description: Displacement of [3H]- DPCPX binding at human Adenosine A1 receptor expressed in CHO cells

Test [4] has as its target T4, Adenosine receptor A2b (Homo sapiens, UniProt P29275).
T4 sequence (P29275 whole entry): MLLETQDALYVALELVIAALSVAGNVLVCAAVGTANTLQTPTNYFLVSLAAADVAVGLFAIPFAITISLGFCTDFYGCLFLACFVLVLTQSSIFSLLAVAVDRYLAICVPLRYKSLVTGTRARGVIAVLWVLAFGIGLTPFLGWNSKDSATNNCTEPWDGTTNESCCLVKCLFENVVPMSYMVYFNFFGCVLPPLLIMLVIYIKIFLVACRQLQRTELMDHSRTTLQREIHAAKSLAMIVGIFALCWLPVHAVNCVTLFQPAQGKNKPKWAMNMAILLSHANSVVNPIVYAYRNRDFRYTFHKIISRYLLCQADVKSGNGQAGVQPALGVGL
Briefly: biochemical.
Description: (§2) Displacement of [3H]- DPCPX from human adenosine A2B receptor expressed in HEK293 cells

The target in test [5] is T2, Adenosine receptor A2a. Briefly: biochemical. This is another data set of the same source.
Test [6] concerns the target T1, Adenosine receptor A3.
For test [7], the target named is T4, Adenosine receptor A2b. Briefly: biochemical. The source holds these as a separate data set.
Description: as §2
Test [8] addresses T2, Adenosine receptor A2a.
In test [9] the target is T1, Adenosine receptor A3. The conditions noted are these: cho.
Description: as §1
The target of test [10] is T5, Adenosine receptor A2b (Rattus norvegicus, UniProt P29276).
T5 sequence (P29276 whole entry): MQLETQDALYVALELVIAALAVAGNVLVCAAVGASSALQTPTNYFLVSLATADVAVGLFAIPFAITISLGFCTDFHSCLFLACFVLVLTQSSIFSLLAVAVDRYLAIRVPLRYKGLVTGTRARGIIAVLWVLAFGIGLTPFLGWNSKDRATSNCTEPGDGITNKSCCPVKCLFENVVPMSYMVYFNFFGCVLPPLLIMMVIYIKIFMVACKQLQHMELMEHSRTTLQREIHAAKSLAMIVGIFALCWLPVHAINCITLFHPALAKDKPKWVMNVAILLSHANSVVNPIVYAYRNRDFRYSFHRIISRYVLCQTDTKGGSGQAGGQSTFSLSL

The values that follow come from ChEMBL document CHEMBL1136743, “Design, synthesis, and biological evaluation of C9- and C2-substituted pyrazolo[4,3-e]-1,2,4-triazolo[1,5-c]pyrimidines as new A2A and A3 adenosine receptors antagonists” (J Med Chem, 2003).

Each structure is given as a SMILES string. Bounds are passed on as bounds.

In the case of `CSc1c2c(nc(N)n3nc(-c4ccco4)nc23)nn1CCCc1ccccc1`, the Ki (as a rule, the dissociation constant of the complex between target and ligand, obtained from inhibition or displacement) in test [1] is over 1000 nM.

As for `CCNc1c2c(nc(NC(=O)Nc3ccc(OC)cc3)n3nc(-c4ccco4)nc23)nn1C` [listing 1 of 2 here], the figures for the Ki in test [1] and in [2] were 14 nM and 21 nM, respectively.

In the case of `CN1CCN(Cc2ccc(-c3nc4c5cnn(CCc6ccccc6)c5nc(N)n4n3)o2)CC1`, the Ki in test [3], in [4], in test [1] and in test [5] was over 1000 nM each time.

The molecule `CN1CCN(c2c3c(nc(N)n4nc(-c5ccco5)nc34)nn2C)CC1` [listing 1 of 2 here] displayed a Ki in test [1] of over 1000 nM.

Take `CSc1c2c(nc(NC(=O)Cc3ccc4c(c3)OCO4)n3nc(-c4ccco4)nc23)nn1C`: in test [6], the half-inhibitory concentration (IC50) (commonly the point on the concentration scale where inhibition reaches its midpoint) was determined as 466 nM.

On to `COc1ccc(CC(=O)Nc2nc3nn(C)c(SC)c3c3nc(-c4ccco4)nn23)cc1`, for which the inhibition constant (Ki) in test [1] is over 1000 nM.

With `COc1ccc(NC(=O)Nc2nc3nn(C)c(SC)c3c3nc(-c4ccco4)nn23)cc1`, in [6], 813 nM corresponded to half-maximal inhibition (IC50).

Consider `Nc1nc2c(cnn2CCc2ccccc2)c2nc(-c3ccc(CN4CCOCC4)o3)nn12`, for which the inhibition constant Ki in test [3], in test [4], in test [1] and in test [5] was over 1000 nM each time.

Consider `Nc1nc2c(cnn2CCc2ccccc2)c2nc(-c3ccccc3)nn12`, for which the Ki is 235 nM in test [3], over 1000 nM in test [7], over 1000 nM in test [1] and over 1000 nM in test [2].

Turning to `CCCSc1c2c(nc(N)n3nc(-c4ccco4)nc23)nn1C`, the half-maximal inhibitory concentration (IC50) in [8] was 14.8 nM; in test [6] it was 852 nM.

Regarding `CSc1c2c(nc(N)n3nc(-c4ccco4)nc23)nn1C`, the values for the IC50 in [8] and in [6] were 6.1 nM and 188 nM, respectively.

`CSc1c2c(nc(N)n3nc(-c4ccc(CN5CCN(C)CC5)o4)nc23)nn1C`: the Ki in test [3], in test [4], in [1] and in test [2] was over 1000 nM each time.

On to `COc1ccc(NC(=O)Nc2nc3nn(C)c(N4CCN(C)CC4)c3c3nc(-c4ccco4)nn23)cc1`, for which the inhibitory constant (Ki) in test [1] and in test [2] was over 1000 nM in each case.

Consider `Cn1nc2nc(N)n3nc(-c4ccco4)nc3c2c1Nc1ccc(O)cc1`, for which the inhibitory constant (Ki) in [4] and in [2] was over 1000 nM each time.

As to `CSc1c2c(nc(NC(=O)Cc3ccc(CC(C)C)cc3)n3nc(-c4ccco4)nc23)nn1C`, the values for the inhibition constant Ki in [4] and in test [1] were 180 nM and over 1000 nM, respectively.

As to `CCNc1c2c(nc(N)n3nc(-c4ccco4)nc23)nn1C`, inhibition in [6] was half-maximal at 103 nM (IC50).

Take `CN1CCN(c2c3c(nc(N)n4nc(-c5ccco5)nc34)nn2C)CC1` [listing 2 of 2 here]: the Ki in test [9] was over 1000 nM.

As for `CCNc1c2c(nc(NC(=O)Nc3ccc(OC)cc3)n3nc(-c4ccco4)nc23)nn1C` [listing 2 of 2 here], the IC50 in [8] was found to be 61 nM; in test [6], 45 nM.

`Nc1nc2c(cnn2CCc2ccccc2)c2nc(-c3ccco3)nn12` [SCH-58261] came in with an inhibition constant Ki in test [10] of over 1000 nM.
